This note sets out measurements from PubChem BioAssay (NCI).

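Cultured in 96-well plates, cells were exposed to test compound for 48 hours across five concentrations. TGI: concentration producing complete growth inhibition.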 Where a SMILES comes first, the peptide text is derived from it. Residues, ends and D or L forms follow the SMILES beside them. *: point of attachment. Boc = CC(C)(C)OC(=O)*; OBn = c1ccc(CO*)cc1

Among the test systems are SNB-75 CNS; TK-10 renal; IGROV1 ovarian; K-562 leukemia; PC-3 prostate; CCRF-CEM leukemia; BT-549 breast; MCF7 breast; SR leukemia; MALME-3M melanoma.
Test in all cases: inhibition of tumour cell growth, NCI panel, 48 h

As to `Cc1ccc(N=NN(C)C(=O)C(C)N)cc1` (centres undefined), the TGI in the assay on SNB-75 CNS, in the assay with TK-10 renal, with IGROV1 ovarian, with K-562 leukemia, in the assay with PC-3 prostate and in the assay with CCRF-CEM leukemia was greater than 100 µM each time. The TGI with BT-549 breast, in the assay on MCF7 breast, in the assay on SR leukemia and in the assay on MALME-3M melanoma was greater than 100 µM in each case.

For the compound `COc1ccc2c(c1)CCCN2S(=O)(=O)c1ccccc1[N+](=O)[O-]`, the TGI in the assay with SNB-75 CNS was greater than 87 µM; in the assay on TK-10 renal, 97.1 µM; with IGROV1 ovarian, greater than 100 µM; in the assay with K-562 leukemia, greater than 68.9 µM; in the assay on PC-3 prostate it was greater than 100 µM; in the assay with CCRF-CEM leukemia, 80.9 µM. In addition, the TGI was 66.7 µM with BT-549 breast, 99.3 µM in the assay with MCF7 breast, greater than 78.8 µM in the assay with SR leukemia and greater than 86.3 µM in the assay with MALME-3M melanoma.

With `COc1ccc(N=Nc2c(C)c(C#N)c(=S)n(C3OC(CO)C(O)C(O)C3O)c2C)cc1` (centres undefined), the TGI with SNB-75 CNS was greater than 100 µM; in the assay with TK-10 renal it was greater than 100 µM; in the assay on IGROV1 ovarian it was greater than 100 µM; in the assay with K-562 leukemia, greater than 100 µM; with PC-3 prostate, greater than 100 µM; in the assay on CCRF-CEM leukemia, 89.2 µM. In addition, the TGI in the assay on BT-549 breast was greater than 100 µM; in the assay on MCF7 breast it was greater than 100 µM; in the assay on SR leukemia, 87.1 µM.

For the compound `COc1ccccc1N=N/C(=N\NC(=O)c1ccc(C)cc1)c1ccc(N(CCC#N)CCC#N)cc1C`, the TGI in the assay with SNB-75 CNS, with TK-10 renal, in the assay on IGROV1 ovarian, with K-562 leukemia, in the assay with PC-3 prostate and with CCRF-CEM leukemia was greater than 100 µM each time. Further, the TGI with BT-549 breast is greater than 100 µM; with MCF7 breast it was greater than 100 µM; in the assay with SR leukemia it was greater than 100 µM; in the assay with MALME-3M melanoma, 77.4 µM.

Turning to `O=C(NC(Nc1ccc(F)cc1)(C(F)(F)F)C(F)(F)F)C(C(F)(F)F)C(F)(F)F`, the TGI is greater than 100 µM in the assay with SNB-75 CNS; greater than 100 µM in the assay with TK-10 renal; greater than 51.5 µM in the assay on IGROV1 ovarian; greater than 100 µM with K-562 leukemia; greater than 100 µM with PC-3 prostate; 19.7 µM in the assay on CCRF-CEM leukemia. Moreover, the TGI in the assay on BT-549 breast was greater than 100 µM; in the assay on MCF7 breast, greater than 100 µM; in the assay with SR leukemia it was greater than 95.8 µM; with MALME-3M melanoma it was greater than 100 µM.

Regarding `CC(C)CC(NC(=O)C(Cc1ccccc1)NC(=O)C(Cc1c[nH]c2ccccc12)NC(=O)CNC(=O)C(N)Cc1ccc(O)cc1)C(=O)O` (centres undefined) (H-YGWFL-OH; configuration not given here), the TGI was 93.9 µM in the assay with SNB-75 CNS; greater than 100 µM in the assay with TK-10 renal; greater than 100 µM with IGROV1 ovarian; greater than 100 µM with PC-3 prostate; greater than 100 µM with CCRF-CEM leukemia; greater than 100 µM in the assay on BT-549 breast. For the same compound, the values for the TGI with MCF7 breast, with SR leukemia and in the assay with MALME-3M melanoma were greater than 100 µM, greater than 100 µM and 72.3 µM, respectively.

For the compound `SCc1ccc(CS)s1`, the TGI in the assay with SNB-75 CNS, with TK-10 renal, in the assay on IGROV1 ovarian, with K-562 leukemia, in the assay on PC-3 prostate and with CCRF-CEM leukemia was greater than 100 µM each time. The TGI in the assay with BT-549 breast, with MCF7 breast and in the assay with SR leukemia was greater than 100 µM in each case.

`O=C(CC(=O)N1N=C(N(c2ccccc2)c2ccccc2)CC1c1ccccc1)Nc1ccc(Cl)cc1` (centres undefined): the TGI in the assay on SNB-75 CNS, with TK-10 renal, in the assay with IGROV1 ovarian, in the assay with K-562 leukemia, in the assay with PC-3 prostate and in the assay on CCRF-CEM leukemia was greater than 100 µM throughout. Further, the TGI in the assay with BT-549 breast, with MCF7 breast and with SR leukemia was greater than 100 µM each time.

In the case of `N#Cc1nc(-c2ccccn2)oc1N`, the TGI in the assay with TK-10 renal, in the assay on IGROV1 ovarian, in the assay on K-562 leukemia, in the assay on PC-3 prostate, in the assay on CCRF-CEM leukemia and in the assay with BT-549 breast was greater than 100 µM throughout. For the same compound, the TGI with MCF7 breast, with SR leukemia and with MALME-3M melanoma was greater than 100 µM in each case.

`O=C(Cc1nc2ncccc2[nH]c1=O)c1c[nH]c2ccccc12`: the TGI in the assay with TK-10 renal turned out to be 30.4 µM; in the assay on IGROV1 ovarian it was 39 µM; with K-562 leukemia it was 63.2 µM; in the assay on PC-3 prostate it was 29.9 µM; in the assay on CCRF-CEM leukemia, 40.3 µM; in the assay with BT-549 breast it was 62 µM. In addition, the TGI in the assay with MCF7 breast turned out to be 32.3 µM; in the assay on SR leukemia, 96.2 µM; with MALME-3M melanoma, 32.7 µM.

As for `NC(=O)/C=c1/c2ccccc2n2nc3ccccc3c12`, the TGI in the assay with TK-10 renal was greater than 100 µM; in the assay with IGROV1 ovarian it was 35 µM; with K-562 leukemia, 53.2 µM; with PC-3 prostate, greater than 100 µM; in the assay on CCRF-CEM leukemia it was greater than 100 µM; in the assay with BT-549 breast, 95.9 µM. Besides, the TGI in the assay on MCF7 breast is greater than 100 µM; in the assay on SR leukemia, 6.16 µM; in the assay on MALME-3M melanoma, 53.4 µM.

For the compound `CCOC(=O)c1nc2ccccc2nc1Oc1cc(OC)c(OC)c(OC)c1`, the TGI with SNB-75 CNS, in the assay with TK-10 renal, with IGROV1 ovarian, in the assay with PC-3 prostate, with CCRF-CEM leukemia and with BT-549 breast was greater than 100 µM each time. The TGI with MCF7 breast, in the assay with SR leukemia and with MALME-3M melanoma was greater than 100 µM in each case.

As to `Fc1cccc(Cl)c1C1SCc2nc3cc4ccccc4cc3n21` (centres undefined), the TGI with TK-10 renal, with IGROV1 ovarian, in the assay with K-562 leukemia, in the assay on PC-3 prostate, in the assay on CCRF-CEM leukemia and in the assay on BT-549 breast was greater than 100 µM in each case. The TGI in the assay with MCF7 breast, in the assay with SR leukemia and in the assay with MALME-3M melanoma was greater than 100 µM in each case.

For `Nc1nc2ccc(OCC(O)CN3CCCCC3)cc2[n+]([O-])n1` (centres undefined), the TGI in the assay with SNB-75 CNS, with TK-10 renal, with K-562 leukemia, with PC-3 prostate, with CCRF-CEM leukemia and in the assay on BT-549 breast was greater than 100 µM in each case. For the same compound, the TGI in the assay with MCF7 breast, in the assay on SR leukemia and in the assay on MALME-3M melanoma was greater than 100 µM in each case.

On to `CC(C)CC(NC(=O)OC(C)(C)C)C(=O)N1CCCC1C(=O)OCc1ccccc1` (stereo not drawn) (Boc-Leu-Pro-OBn; configuration not given here), for which the TGI with SNB-75 CNS, in the assay with TK-10 renal, in the assay on IGROV1 ovarian, in the assay with K-562 leukemia, with PC-3 prostate and in the assay on BT-549 breast was greater than 100 µM throughout. The TGI in the assay with MCF7 breast, in the assay with SR leukemia and in the assay on MALME-3M melanoma was greater than 100 µM in each case.
